Assay results: PubChem BioAssay AID256 (DTP/NCI, 2004)
Values joined by “and” are separate entries in the source; they are usually repeats but may differ in a detail not shown here. Identical values can stand only once. Toxic doses and inconclusive results are not listed. The calls were made as follows: active = survival T/C of 150% or more; inactive = T/C below 125% in these data.

Test system: CD2F1 mice, L1210 leukemia ip, survival T/C
Assay: NCI In Vivo Anticancer Drug Screen. Data for tumor model L1210 Leukemia (intraperitoneal) in CD2F1 (CDF1) mice
Conditions: higher = longer survival
In short: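 Tumor-bearing mice (transplanted tumor) were split into treated and vehicle control groups, and the measured endpoint of each treated group was divided by that of its vehicle controls.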

[1] = endpoint: mean survival time, dose: 100.0 mg/kg/injection, schedule: Q04DX002 (ip), vehicle: saline with Tween-80
[2] = endpoint: mean survival time, dose: 200.0 mg/kg/injection, schedule: Q04DX002 (ip), vehicle: saline with Tween-80
[3] = endpoint: mean survival time, dose: 12.5 mg/kg/injection, schedule: Q01DX009 (ip), vehicle: saline with Tween-80
[4] = endpoint: mean survival time, dose: 100.0 mg/kg/injection, schedule: Q04DX003 (ip), vehicle: saline with Tween-80
[5] = endpoint: mean survival time, dose: 200.0 mg/kg/injection, schedule: Q04DX003 (ip), vehicle: saline with Tween-80
[6] = endpoint: mean survival time, dose: 400.0 mg/kg/injection, schedule: Q04DX003 (ip), vehicle: saline with Tween-80
[7] = endpoint: mean survival time, dose: 25.0 mg/kg/injection, schedule: Q01DX009 (ip), vehicle: saline with Tween-80
[8] = endpoint: mean survival time, dose: 50.0 mg/kg/injection, schedule: Q01DX009 (ip), vehicle: saline with Tween-80
[9] = endpoint: mean survival time, dose: 100.0 mg/kg/injection, schedule: Q01DX009 (ip), vehicle: saline with Tween-80
[10] = endpoint: mean survival time, dose: 200.0 mg/kg/injection, schedule: Q01DX009 (ip), vehicle: saline with Tween-80
[11] = endpoint: mean survival time, dose: 400.0 mg/kg/injection, schedule: Q01DX009 (ip), vehicle: saline with Tween-80
[12] = endpoint: mean survival time, dose: 100.0 mg/kg/injection, schedule: Q04DX003 (ip), vehicle: saline
[13] = endpoint: mean survival time, dose: 200.0 mg/kg/injection, schedule: Q04DX003 (ip), vehicle: saline
[14] = endpoint: mean survival time, dose: 400.0 mg/kg/injection, schedule: Q04DX003 (ip), vehicle: saline
[15] = endpoint: mean survival time, dose: 25.0 mg/kg/injection, schedule: Q04DX003 (ip), vehicle: saline with Tween-80

Measured: T/C

c1ccc(Cc2ccccn2)nc1
inactive: endpoint: mean survival time, dose: 100.0 mg/kg/injection, schedule: Q01DX009 (ip), vehicle: saline 110 % of control | endpoint: mean survival time, dose: 200.0 mg/kg/injection, schedule: Q01DX009 (ip), vehicle: saline 101 % of control | endpoint: mean survival time, dose: 400.0 mg/kg/injection, schedule: Q01DX009 (ip), vehicle: saline 90 % of control

CN(C)C(=S)Oc1ccc(S(=O)(=O)F)cc1
inactive: [1] 98 % of control | [2] 91 % of control | endpoint: mean survival time, dose: 400.0 mg/kg/injection, schedule: Q04DX002 (ip), vehicle: saline with Tween-80 109 % of control

O=C(CCCCCCCCC(=O)N/N=C\c1ccccc1O)N/N=C\c1ccccc1O
inactive: [3] 97 % of control | [4] 98 % of control | [5] 93 % of control | [6] 93 % of control

O=C(COc1ccccc1)NC(=S)Nc1ccc(Cl)cc1Cl
inactive: [7] 100 % of control | [8] 100 % of control

Clc1c(Cl)c(Cl)c(C(c2c(Cl)c(Cl)c(Cl)c(Cl)c2Cl)c2c(Cl)c(Cl)c(Cl)c(Cl)c2Cl)c(Cl)c1Cl
inactive: [4] 98 % of control | [5] 98 % of control | [6] 110 % of control

CCOc1ccc(CO)cc1
inactive: [9] 104 % of control | [10] 98 % of control | [11] 108 % of control

Cc1ccc(O)c(C)n1
inactive: [12] 104 % of control | [13] 98 % of control | [14] 97 % of control

O=S(=O)(Oc1ccccc1)c1c(F)c(F)c(F)c(F)c1F
inactive: [7] 94 % of control | [8] 94 % of control | [9] 90 % of control | [4] 95 % of control

CC(=O)ON1C(=O)c2cccc3cccc(c23)C1=O
inactive: [8] 96 % of control | [9] 102 % of control

Cc1ccc(S(=O)(=O)O)c2c([N+](=O)[O-])cccc12
inactive: [4] 100 % of control | [5] 104 % of control | [6] 96 % of control

CC(C)OC(=O)Nc1cc(F)cc(C(F)(F)F)c1F
inactive: [9] 94 % of control | [10] 97 % of control | [11] 97 % of control

CCOC(=O)C(=CCBr)C(=O)OCC
inactive: endpoint: mean survival time, dose: 1.56 mg/kg/injection, schedule: Q01DX009 (ip), vehicle: other 100 % of control | endpoint: mean survival time, dose: 3.13 mg/kg/injection, schedule: Q01DX009 (ip), vehicle: other 100 % of control | endpoint: mean survival time, dose: 6.25 mg/kg/injection, schedule: Q01DX009 (ip), vehicle: other 107 % of control | endpoint: mean survival time, dose: 12.5 mg/kg/injection, schedule: Q01DX009 (ip), vehicle: other 100 % of control | endpoint: mean survival time, dose: 25.0 mg/kg/injection, schedule: Q01DX009 (ip), vehicle: other 102 % of control

OCc1cc(Cl)cc(Cl)c1OCc1ccccc1
inactive: endpoint: mean survival time, dose: 100.0 mg/kg/injection, schedule: Q04DX002 (ip), vehicle: other 101 % of control | endpoint: mean survival time, dose: 200.0 mg/kg/injection, schedule: Q04DX002 (ip), vehicle: other 101 % of control | endpoint: mean survival time, dose: 400.0 mg/kg/injection, schedule: Q04DX002 (ip), vehicle: other 101 % of control

COc1ccc(NC(=O)NCc2cccc(Cl)c2)cc1
inactive: endpoint: mean survival time, dose: 50.0 mg/kg/injection, schedule: Q01DX009 (ip), vehicle: Klucel (hydroxypropylcellulose) (HPC) 102 % of control | endpoint: mean survival time, dose: 100.0 mg/kg/injection, schedule: Q01DX009 (ip), vehicle: Klucel (hydroxypropylcellulose) (HPC) 114 % of control | endpoint: mean survival time, dose: 200.0 mg/kg/injection, schedule: Q01DX009 (ip), vehicle: Klucel (hydroxypropylcellulose) (HPC) 117 % of control

CCOC(=O)C(C)(C)Oc1ccc(Cl)cc1
inactive: [3] 100 % of control and 105 % of control | [7] 97 % of control and 98 % of control | [8] 103 % of control and 104 % of control | endpoint: mean survival time, dose: 100.0 mg/kg/injection, schedule: Q01DX001 (ip), vehicle: saline with Tween-80 94 % of control | [9] 100 % of control and 101 % of control and 103 % of control | endpoint: mean survival time, dose: 200.0 mg/kg/injection, schedule: Q01DX001 (ip), vehicle: saline with Tween-80 91 % of control | [10] 100 % of control and 101 % of control and 102 % of control | endpoint: mean survival time, dose: 400.0 mg/kg/injection, schedule: Q01DX001 (ip), vehicle: saline with Tween-80 94 % of control | [11] 100 % of control and 104 % of control and 109 % of control

O=C(O)c1cc2ccc(Cl)cc2c2cc(C(F)(F)F)ccc12
inactive: endpoint: mean survival time, dose: 18.8 mg/kg/injection, schedule: Q01DX009 (ip), vehicle: saline 97 % of control | endpoint: mean survival time, dose: 37.5 mg/kg/injection, schedule: Q01DX009 (ip), vehicle: saline 111 % of control | endpoint: mean survival time, dose: 75.0 mg/kg/injection, schedule: Q04DX003 (ip), vehicle: saline 95 % of control

O=C(O)C1C2OC3C(OC(=O)C31)C2Br (centres undefined)
inactive: [9] 96 % of control | [4] 91 % of control | [10] 93 % of control | [5] 89 % of control | [11] 91 % of control | [6] 89 % of control

CCC[N+](CCC)(CCC)CCC.N#CC(C#N)=C([SH2+])[SH2+].N#CC(C#N)=C([SH2+])[SH2+].N#CC(C#N)=C([SH2+])[SH2+].[Fe+3]
inactive: endpoint: mean survival time, dose: 25.0 mg/kg/injection, schedule: Q04DX003 (ip), vehicle: acetone 103 % of control | endpoint: mean survival time, dose: 50.0 mg/kg/injection, schedule: Q04DX003 (ip), vehicle: acetone 97 % of control

C[N+]1(C)CCc2ccccc2C1Cc1ccc(Oc2ccc(CC3c4ccccc4CC[N+]3(C)C)cc2)cc1 (centres undefined)
inactive: endpoint: mean survival time, dose: 0.2 mg/kg/injection, schedule: Q01DX009 (ip), vehicle: saline 93 % of control | endpoint: mean survival time, dose: 0.39 mg/kg/injection, schedule: Q01DX009 (ip), vehicle: saline 96 % of control

O=C(O)CCS(=O)(=O)CCC(=O)O
inactive: [4] 92 % of control | [5] 93 % of control | [6] 90 % of control

CC(=O)NS(=O)(=O)c1ccc(NC(=O)/C=C/C(=O)O)cc1
inactive: [12] 100 % of control | [13] 100 % of control | [14] 100 % of control

NC(CCl)=NCC12CC3CC(CC(C3)C1)C2
inactive: endpoint: median survival time, dose: 3.0 mg/kg/injection, schedule: Q01DX009 (ip), vehicle: Klucel (hydroxypropylcellulose) (HPC) 104 % of control | endpoint: median survival time, dose: 6.0 mg/kg/injection, schedule: Q01DX009 (ip), vehicle: Klucel (hydroxypropylcellulose) (HPC) 107 % of control | endpoint: median survival time, dose: 12.0 mg/kg/injection, schedule: Q01DX009 (ip), vehicle: Klucel (hydroxypropylcellulose) (HPC) 108 % of control | endpoint: median survival time, dose: 24.0 mg/kg/injection, schedule: Q01DX009 (ip), vehicle: Klucel (hydroxypropylcellulose) (HPC) 110 % of control

[Cl][Pt+2][Cl].[NH-]CCN(CCN)CCN
inactive: endpoint: mean survival time, dose: 12.5 mg/kg/injection, schedule: Q04DX003 (ip), vehicle: saline with Tween-80 97 % of control | [15] 98 % of control

CCN(CC)C(=O)Nc1cc(Cl)ccc1Cl
inactive: [1] 97 % of control | [2] 101 % of control

Nc1ncnc(N)c1NC(=O)c1cccc(Cl)c1
inactive: [15] 100 % of control | endpoint: mean survival time, dose: 50.0 mg/kg/injection, schedule: Q04DX003 (ip), vehicle: saline with Tween-80 100 % of control | [4] 118 % of control and 108 % of control

CN(C1=CC(=O)C(C)(C)c2ccccc21)C1CCCCC1
inactive: [4] 95 % of control | [5] 91 % of control | [6] 94 % of control

CCOC(=O)Nc1cc([N+](C)(C)C)ccc1OCCOc1ccc([N+](C)(C)C)cc1
inactive: endpoint: mean survival time, dose: 0.15 mg/kg/injection, schedule: Q04DX003 (ip), vehicle: Klucel (hydroxypropylcellulose) (HPC) 100 % of control | endpoint: mean survival time, dose: 0.3 mg/kg/injection, schedule: Q04DX003 (ip), vehicle: Klucel (hydroxypropylcellulose) (HPC) 90 % of control | endpoint: mean survival time, dose: 0.6 mg/kg/injection, schedule: Q04DX003 (ip), vehicle: Klucel (hydroxypropylcellulose) (HPC) 100 % of control
